Results on one molecule are retold here after US20110224197A1, “PYRIMIDINES AND PYRIDINES USEFUL AS INHIBITORS OF PROTEIN KINASES” (Vertex Pharmaceuticals Incorporated, priority 2008, published 2011).

The test system of assay [1] is spinal cord injury model. Description: Spinal Cord Injury Model. Particulars: in vivo. As to the method: Compound I-37 was tested in a spinal cord injury model similar to the one described in Dill, et al, (2008) “Inactivation of Glycogen Synthase Kinase 3 Promotes Axonal Growth and Recover in CNS” The Journal of Neuroscience, 28(36): 8914-8928.
The test system of assay [2] is GSK-3α/β pTYR. Description: pTYR biomarker analysis in brain, Post Stroke Model II. In kind it is in vivo, rat. Particulars: all doses, termination of study. The method, then: To track the activity of Compound I-37 in the CNS of rats subjected to MCAO, brains were removed and protein lysate was obtained (as described herein) from both vehicle treated and compound treated animals at the termination of the study. Lysates were analyzed by Western blot and probed for GSK-3α/β pTYR levels.
Protein lysate is obtained from the brains of all vehicle and compound-treated animals and is processed for biomarker analysis of GSK3α/β pTYR and β-catenin by Western blot assay to ensure compound activity on the target.

Assay [3] has as its system E16 rat hippocampal or cortical neurons. Description: Axonal Branching Assay. In kind it is cell-based. As to the method: Compounds are tested for the ability to enhance axonal branching in E16 rat hippocampal or cortical neurons.
1 mg/ml stock of PDL is diluted into 100 μg/ml in DI water. The glass coverslips are coated for at least 1 hour at 37° C. prior to doing the dissection. PDL is aspirated and the plates are rinsed with PBS and air-dried in hood.
Cortical or hippocampal lobes are combined with 9 mL of Base media (Neurobasal+Pen/Strep) and put on ice. 1 mL of 10× trypsin solution is added and the mixture is swirled gently. The tissue is then digested via incubation in a 37° C. waterbath for 20 minutes. After 20 minutes, 10 μl/ml DNase (100 μL DNase) is added and the mixture is incubated for another 5 minutes.
The cells are spun at 1000 rpm for 1 minute. The enzyme solution is then removed without removing any of the brain fragments sitting on the bottom. […] The cells are counted in a hemacytometer and seeded at 5000-10000 cells/well in a 24 well plate with glass coverslip inserts coated with PDL. […]
Images are captured at 10× and 20× on an upright microscope and axonal branching is determined by quantification of area under threshold fluorescence of neurofilament Alexa 488 per cell. Dendritic branching is determined by quantification of area under threshold fluorescence of MAP2 Alexa 568 per cell. Alternatively, branching can be determined by manual counting of branch points per cell. […]

Turning to `Cc1nc(-c2ccccc2Cl)nc(Nc2n[nH]c3ncc(F)cc23)c1C` [Compound I-37, N-(2-(2-chlorophenyl)-5,6-dimethylpyrhnidin-4-yl)-5-fluoro-1H-pyrazolo[3,4-b]pyridin-3-amine], the functional recovery entry in assay [1] was “did not appear to improve functional recovery”. Also, the “pTYR signal compared to vehicle treated rats” value in assay [2] is on record as “significant reduction”. In addition, the “axonal and dendritic branching” value in assay [3] (10 nM, 7 days) is “increased axonal and dentritic branching”. Moreover, the axon growth result in assay [3] (concentrations shown to induce β-catenin) is reported as “axon growth was inhibited”.
